# Patent US20250163104A1, “MACROCYCLIC IMMUNOMODULATORS” (priority 2021, published 2025)
# Where a SMILES comes first, the peptide text is derived from it. Bridges are numbered along the chain shown (N, C = ends). [ ]: non-standard residue; d: D form. The star is where a group is joined. Phe(4-COOH) = N[C@@H](Cc1ccc(C(=O)O)cc1)C(=O)O; Bip = N[C@@H](Cc1ccc(-c2ccccc2)cc1)C(=O)O; Phe(3-OMe) = COc1cccc(C[C@H](N)C(=O)O)c1; Phe(3-Me) = Cc1cccc(C[C@H](N)C(=O)O)c1; 4Pal = N[C@@H](Cc1ccncc1)C(=O)O; Cit = NC(=O)NCCC[C@H](N)C(=O)O; Carboxymethyl = O=C(O)C*; Nle = CCCC[C@H](N)C(=O)O; Orn = NCCC[C@H](N)C(=O)O; Dab = NCC[C@H](N)C(=O)O
# Biological target: T1, human PD-1 / PD-L1-Ig binding on Jurkat cell line over-expressing human PD-1 (Jurkat-PD-1) (Homo sapiens, UniProt Q15116)
# T1 construct: expressed in transfected cells; host or cells: Jurkat
# T1 sequence (Q15116 25-288): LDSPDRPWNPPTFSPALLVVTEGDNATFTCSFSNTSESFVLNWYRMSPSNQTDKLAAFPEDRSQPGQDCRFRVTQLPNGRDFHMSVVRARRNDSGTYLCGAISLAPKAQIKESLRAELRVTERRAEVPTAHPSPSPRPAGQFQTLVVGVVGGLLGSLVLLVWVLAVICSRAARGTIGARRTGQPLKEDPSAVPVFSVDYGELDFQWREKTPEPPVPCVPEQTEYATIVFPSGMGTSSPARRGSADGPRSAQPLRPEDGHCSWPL
# Experiment: Jurkat-PD-1 Cell Binding High-Content Screening Assay (CBA)
# Format: cell-based
# Conditions: Jurkat HPD1_PDL1 IC50, Jurkat-PD-1 cells, PE-labeled PD-L1-Ig 20 nM final
# Procedure, shortened: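 Jurkat-hPD-1 cells in DMEM with 10% fetal calf serum receive test compound and are held at 37° C for 2 h. PE-labeled PD-L1-Ig is added at 20 nM final and left for 1 hour. Cells are then fixed and Hoechst-stained, and binding is measured by imaging.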
row,Structure (SMILES),IC50
1,CC[C@H](C)[C@@H]1NC(=O)[C@H](Cc2ccc(-c3ccccc3)cc2)NC(=O)[C@H](C(C)C)NC(=O)[C@H](Cc2cccc(C)c2)NC(=O)[C@H](CC(=O)O)NC(=O)[C@H](Cc2ccc(OCC(=O)O)cc2)NC(=O)[C@H](Cc2ccncc2)NC(=O)CSC[C@@H](C(=O)N[C@@H](C)C(N)=O)NC(=O)[C@H]([C@@H](C)O)NC(=O)[C@H](C(C)C)NC(=O)[C@H](CC(C)C)NC(=O)[C@H](CCN)NC(=O)[C@@H](CC(C)C)NC(=O)[C@H](CCCN)NC1=O [Compound 1186],5.8 nM
2,CC[C@H](C)[C@@H]1NC(=O)[C@H](Cc2ccc(-c3ccccc3)cc2)NC(=O)[C@H](C(C)C)NC(=O)[C@H](Cc2cccc(OC)c2)NC(=O)[C@H](CC(=O)O)NC(=O)[C@H](Cc2ccc(OCC(=O)O)cc2)NC(=O)[C@H](Cc2ccncc2)NC(=O)CSC[C@@H](C(=O)N[C@@H](C)C(N)=O)NC(=O)[C@H]([C@@H](C)O)NC(=O)[C@H](C(C)C)NC(=O)[C@H](CC(C)C)NC(=O)[C@H](CCN)NC(=O)[C@@H](CC(C)C)NC(=O)[C@H](CCCN)NC1=O [Compound 1187],10.7 nM

# Same assay, conditions: Jurkat-PD-1 cells, PE-labeled PD-L1-Ig 20 nM final; read-out: Jurkat HPD1_PDL1 IC50
row,Structure (SMILES),IC50
1,COc1cccc(C[C@@H]2NC(=O)[C@H](CC(=O)O)NC(=O)[C@H](Cc3ccc(OCC(=O)O)cc3)NC(=O)[C@H](Cc3ccncc3)NC(=O)CSC[C@@H](C(=O)N[C@@H](C)C(N)=O)NC(=O)[C@H]([C@@H](C)O)NC(=O)[C@H](C(C)C)NC(=O)[C@H](CC(C)C)NC(=O)[C@H](CCN)NC(=O)[C@@H](CC(C)C)NC(=O)[C@H](CCCN)NC(=O)[C@H](CCCNC(N)=O)NC(=O)[C@H](Cc3ccc(-c4ccccc4)cc3)NC(=O)[C@H](C(C)C)NC2=O)c1 [Compound 1185] ({CH2CO}-[4Pal]Y(Carboxymethyl)D[Phe(3-OMe)]V[Bip][Cit][Orn][dL][Dab]LVTCA-NH2; thioether N-14),7.4 nM
2,COc1cccc(C[C@@H]2NC(=O)[C@H](CC(=O)O)NC(=O)[C@H](Cc3ccc(OCC(=O)O)cc3)NC(=O)[C@H](Cc3ccncc3)NC(=O)CSC[C@@H](C(=O)N[C@@H](C)C(N)=O)NC(=O)[C@H]([C@@H](C)O)NC(=O)[C@H](C(C)C)NC(=O)[C@H](CC(C)C)NC(=O)[C@H](CCN)NC(=O)[C@@H](CC(C)C)NC(=O)[C@H](CCCN)NC(=O)[C@H](C(C)C)NC(=O)[C@H](Cc3ccc(-c4ccccc4)cc3)NC(=O)[C@H](C(C)C)NC2=O)c1 [Compound 1188] ({CH2CO}-[4Pal]Y(Carboxymethyl)D[Phe(3-OMe)]V[Bip]V[Orn][dL][Dab]LVTCA-NH2; thioether N-14),7.9 nM
3,CCCC[C@@H]1NC(=O)[C@H](CCN)NC(=O)[C@@H](CC(C)C)NC(=O)[C@H](CCCN)NC(=O)[C@H](CCCNC(N)=O)NC(=O)[C@H](Cc2ccc(-c3ccccc3)cc2)NC(=O)[C@H](C(C)C)NC(=O)[C@H](Cc2cccc(C)c2)NC(=O)[C@H](CC(=O)O)NC(=O)[C@H](Cc2ccc(C(=O)O)cc2)NC(=O)[C@H](Cc2ccncc2)NC(=O)CSC[C@@H](C(=O)N[C@@H](C)C(N)=O)NC(=O)[C@H]([C@@H](C)O)NC(=O)[C@H](C(C)C)NC1=O [Compound 1189] ({CH2CO}-[4Pal][Phe(4-COOH)]D[Phe(3-Me)]V[Bip][Cit][Orn][dL][Dab][Nle]VTCA-NH2; thioether N-14),17.7 nM
4,CCCC[C@@H]1NC(=O)[C@H](CCN)NC(=O)[C@@H](CC(C)C)NC(=O)[C@H](CCCN)NC(=O)[C@H]([C@@H](C)CC)NC(=O)[C@H](Cc2ccc(-c3ccccc3)cc2)NC(=O)[C@H](C(C)C)NC(=O)[C@H](Cc2cccc(C)c2)NC(=O)[C@H](CC(=O)O)NC(=O)[C@H](Cc2ccc(C(=O)O)cc2)NC(=O)[C@H](Cc2ccncc2)NC(=O)CSC[C@@H](C(=O)N[C@@H](C)C(N)=O)NC(=O)[C@H]([C@@H](C)O)NC(=O)[C@H](C(C)C)NC1=O [Compound 1191],10 nM
5,CC[C@H](C)[C@@H]1NC(=O)[C@H](Cc2ccc(-c3ccccc3)cc2)NC(=O)[C@H](C(C)C)NC(=O)[C@H](Cc2cccc(C)c2)NC(=O)[C@H](CC(=O)O)NC(=O)[C@H](Cc2ccc(C(=O)O)cc2)NC(=O)[C@H](Cc2ccncc2)NC(=O)CSC[C@@H](C(=O)N[C@@H](C)C(N)=O)NC(=O)[C@H]([C@@H](C)O)NC(=O)[C@H](C(C)C)NC(=O)[C@H](CC2CCCCC2)NC(=O)[C@H](CCN)NC(=O)[C@@H](CC(C)C)NC(=O)[C@H](CCCN)NC1=O [Compound 1192],7.1 nM
6,CCCC[C@@H]1NC(=O)[C@H](CCN)NC(=O)[C@@H](CC(C)C)NC(=O)[C@H](CCCN)NC(=O)[C@H](C(C)C)NC(=O)[C@H](Cc2ccc(-c3ccccc3)cc2)NC(=O)[C@H](C(C)C)NC(=O)[C@H](Cc2cccc(C)c2)NC(=O)[C@H](CC(=O)O)NC(=O)[C@H](Cc2ccc(C(=O)O)cc2)NC(=O)[C@H](Cc2ccncc2)NC(=O)CSC[C@@H](C(=O)N[C@@H](C)C(N)=O)NC(=O)[C@H]([C@@H](C)O)NC(=O)[C@H](C(C)C)NC1=O [Compound 1193] ({CH2CO}-[4Pal][Phe(4-COOH)]D[Phe(3-Me)]V[Bip]V[Orn][dL][Dab][Nle]VTCA-NH2; thioether N-14),7.7 nM

# Results, then the compound that gave them:
row,IC50,Structure (SMILES)
1,6.1 nM,COc1cccc(C[C@@H]2NC(=O)[C@H](CC(=O)O)NC(=O)[C@H](Cc3ccc(C(=O)O)cc3)NC(=O)[C@H](Cc3ccncc3)NC(=O)CSC[C@@H](C(=O)N[C@@H](C)C(N)=O)NC(=O)[C@H]([C@@H](C)O)NC(=O)[C@H](C(C)C)NC(=O)[C@H](CC(C)C)NC(=O)[C@H](CCN)NC(=O)[C@@H](CC(C)C)NC(=O)[C@H](CCCN)NC(=O)[C@H](C(C)C)NC(=O)[C@H](Cc3ccc(-c4ccccc4)cc3)NC(=O)[C@H](C(C)C)NC2=O)c1 [Compound 1183] ({CH2CO}-[4Pal][Phe(4-COOH)]D[Phe(3-OMe)]V[Bip]V[Orn][dL][Dab]LVTCA-NH2; thioether N-14)
2,6.2 nM,Cc1cccc(C[C@@H]2NC(=O)[C@H](CC(=O)O)NC(=O)[C@H](Cc3ccc(OCC(=O)O)cc3)NC(=O)[C@H](Cc3ccncc3)NC(=O)CSC[C@@H](C(=O)N[C@@H](C)C(N)=O)NC(=O)[C@H]([C@@H](C)O)NC(=O)[C@H](C(C)C)NC(=O)[C@H](CC(C)C)NC(=O)[C@H](CCN)NC(=O)[C@@H](CC(C)C)NC(=O)[C@H](CCCN)NC(=O)[C@H](CCCNC(N)=O)NC(=O)[C@H](Cc3ccc(-c4ccccc4)cc3)NC(=O)[C@H](C(C)C)NC2=O)c1 [Compound 1184] ({CH2CO}-[4Pal]Y(Carboxymethyl)D[Phe(3-Me)]V[Bip][Cit][Orn][dL][Dab]LVTCA-NH2; thioether N-14)
3,4.5 nM,Cc1cccc(C[C@@H]2NC(=O)[C@H](CC(=O)O)NC(=O)[C@H](Cc3ccc(C(=O)O)cc3)NC(=O)[C@H](Cc3ccncc3)NC(=O)CSC[C@@H](C(=O)N[C@@H](C)C(N)=O)NC(=O)[C@H]([C@@H](C)O)NC(=O)[C@H](C(C)C)NC(=O)[C@H](CC3CCCCC3)NC(=O)[C@H](CCN)NC(=O)[C@@H](CC(C)C)NC(=O)[C@H](CCCN)NC(=O)[C@H](CCCNC(N)=O)NC(=O)[C@H](Cc3ccc(-c4ccccc4)cc3)NC(=O)[C@H](C(C)C)NC2=O)c1 [Compound 1190]
4,4.7 nM,Cc1cccc(C[C@@H]2NC(=O)[C@H](CC(=O)O)NC(=O)[C@H](Cc3ccc(C(=O)O)cc3)NC(=O)[C@H](Cc3ccncc3)NC(=O)CSC[C@@H](C(=O)N[C@@H](C)C(N)=O)NC(=O)[C@H]([C@@H](C)O)NC(=O)[C@H](C(C)C)NC(=O)[C@H](CC3CCCCC3)NC(=O)[C@H](CCN)NC(=O)[C@@H](CC(C)C)NC(=O)[C@H](CCCN)NC(=O)[C@H](C(C)C)NC(=O)[C@H](Cc3ccc(-c4ccccc4)cc3)NC(=O)[C@H](C(C)C)NC2=O)c1 [Compound 1194]
